Legend:
Assay type in all cases: cell-based, human
Settings in all cases: 10 μM
A549/ATCC = assay: NCI-60 screen, Non-Small Cell Lung Cancer
Method: (§1) Several compounds were tested at single concentrations (10 μM) against 59 different human tumor cell lines, representing leukemia, melanoma and cancers of the lung, colon, brain, ovary, breast, prostate, and kidney (see, Table 3). The human tumor cell lines of the cancer screening panel were grown in RPMI 1640 medium containing 5% fetal bovine serum and 2 mM L-glutamine. For a typical screening experiment, cells were inoculated into 96 well microtiter plates in 100 μL at plating densities ranging from 5,000 to 40,000 cells/well depending on the doubling time of individual cell lines. After cell inoculation, the microtiter plates were incubated at 37° C., 5% CO2, 95% air and 100% relative humidity for 24 hours prior to addition of the compounds.
(§2) After 24 hours, two plates of each cell line were fixed in situ with TCA, to represent a measurement of the cell population for each cell line at the time of drug addition (Tz). Compounds were solubilized in dimethyl sulfoxide at 400-fold the desired final maximum test concentration and stored frozen prior to use. At the time of drug addition, an aliquot of frozen concentrate was thawed and diluted to twice the desired final maximum test concentration with complete medium containing 50 μg/ml gentamicin. Additional four, 10-fold or ½ log serial dilutions were made to provide a total of five compound concentrations plus control. Aliquots of 100 μl of these different drug dilutions were added to the appropriate microtiter wells already containing 100 μl of medium, resulting in the required final compound concentrations.
(§3) Following drug addition, the plates were incubated for an additional 48 hours at 37° C., 5% CO2, 95% air, and 100% relative humidity. For adherent cells, the assay was terminated by the addition of cold TCA. Cells were fixed in situ by the gentle addition of 50 μl of cold 50% (w/v) TCA (final concentration, 10% TCA) and incubated for 60 minutes at 4° C. The supernatant was discarded, and the plates were washed five times with tap water and air dried. Sulforhodamine B (SRB) solution (100 μl) at 0.4% (w/v) in 1% acetic acid was added to each well, and plates were incubated for 10 minutes at room temperature. After staining, unbound dye was removed by washing five times with 1% acetic acid and the plates were air dried. Bound stain was subsequently solubilized with 10 mM trizma base, and the absorbance was read on an automated plate reader at a wavelength of 515 nm. For suspension cells, the methodology was the same except that the assay was terminated by fixing settled cells at the bottom of the wells by gently adding 50 μl of 80% TCA (final concentration, 16% TCA). Using the seven absorbance measurements (time zero, (Tz), control growth, (C), and test growth in the presence of drug at the five concentration levels (Ti)), the percentage growth was calculated at each of the compound concentrations levels. Percentage growth inhibition was calculated as:
(§4) [(Ti−Tz)/(C−Tz)]×100 for concentrations for which Ti>/=Tz
(§5) [(Ti−Tz)/Tz]×100 for concentrations for which Ti<Tz.
(§6) Three dose response parameters were calculated for each compound. Growth inhibition of 50% (GI50) was calculated from [(Ti−Tz)/(C−Tz)]×100=50, which is the compound concentration resulting in a 50% reduction in the net protein increase (as measured by SRB staining) in control cells during the compound incubation. The compound concentration resulting in total growth inhibition (TGI) was calculated from Ti=Tz. The LC50 (concentration of compound resulting in a 50% reduction in the measured protein at the end of the compound treatment as compared to that at the beginning) indicating a net loss of cells following treatment was calculated from [(Ti−Tz)/Tz]×100=−50. Values were calculated for each of these three parameters if the level of activity was reached; however, if the effect was not reached or was exceeded, the value for that parameter was expressed as greater or less than the maximum or minimum concentration tested.

EKVX = assay: NCI-60 screen, Non-Small Cell Lung Cancer
Method: as §1, §2, §3, §4, §5, §6

HOP-92 = assay: NCI-60 screen, Non-Small Cell Lung Cancer
Method: as §1, §2, §3, §4, §5, §6

NCI-H23 = assay: NCI-60 screen, Non-Small Cell Lung Cancer
Method: as §1, §2, §3, §4, §5, §6

NCI-H322M = assay: NCI-60 screen, Non-Small Cell Lung Cancer
Method: as §1, §2, §3, §4, §5, §6

NCI-H460 = assay: NCI-60 screen, Non-Small Cell Lung Cancer
Method: as §1, §2, §3, §4, §5, §6

NCI-H522 = assay: NCI-60 screen, Non-Small Cell Lung Cancer
Method: as §1, §2, §3, §4, §5, §6

SF-268 = assay: NCI-60 screen, CNS Cancer
Method: as §1, §2, §3, §4, §5, §6

SF-295 = assay: NCI-60 screen, CNS Cancer
Method: as §1, §2, §3, §4, §5, §6

SNB-19 = assay: NCI-60 screen, CNS Cancer
Method: as §1, §2, §3, §4, §5, §6

SNB-75 = assay: NCI-60 screen, CNS Cancer
Method: as §1, §2, §3, §4, §5, §6

U251 = assay: NCI-60 screen, CNS Cancer
Method: as §1, §2, §3, §4, §5, §6

IGROV1 = assay: NCI-60 screen, Ovarian Cancer
Method: as §1, §2, §3, §4, §5, §6

NCI/ADR-RES = assay: NCI-60 screen, Ovarian Cancer
Method: as §1, §2, §3, §4, §5, §6

OVCAR-3 = assay: NCI-60 screen, Ovarian Cancer
Method: as §1, §2, §3, §4, §5, §6

OVCAR-4 = assay: NCI-60 screen, Ovarian Cancer
Method: as §1, §2, §3, §4, §5, §6

OVCAR-5 = assay: NCI-60 screen, Ovarian Cancer
Method: as §1, §2, §3, §4, §5, §6

OVCAR-8 = assay: NCI-60 screen, Ovarian Cancer
Method: as §1, §2, §3, §4, §5, §6

SK-OV-3 = assay: NCI-60 screen, Ovarian Cancer
Method: as §1, §2, §3, §4, §5, §6

A498 = assay: NCI-60 screen, Renal Cancer
Method: as §1, §2, §3, §4, §5, §6

ACHN = assay: NCI-60 screen, Renal Cancer
Method: as §1, §2, §3, §4, §5, §6

CAKI-1 = assay: NCI-60 screen, Renal Cancer
Method: as §1, §2, §3, §4, §5, §6

RXF 393 = assay: NCI-60 screen, Renal Cancer
Method: as §1, §2, §3, §4, §5, §6

SN12C = assay: NCI-60 screen, Renal Cancer
Method: as §1, §2, §3, §4, §5, §6

TK-10 = assay: NCI-60 screen, Renal Cancer
Method: as §1, §2, §3, §4, §5, §6

UO-31 = assay: NCI-60 screen, Renal Cancer
Method: as §1, §2, §3, §4, §5, §6

SF-539 = assay: NCI-60 screen, CNS Cancer
Method: as §1, §2, §3, §4, §5, §6

NCCc1cc(Br)cc(C#Cc2cccc(C#Cc3cc(Br)cc(CCN)c3)c2)c1 [Compound A]
Percent Growth (A549/ATCC): −15.97%
Percent Growth (EKVX): 62.48%
Percent Growth (HOP-92): 73.03%
Percent Growth (NCI-H23): 94.81%
Percent Growth (NCI-H322M): 53%
Percent Growth (NCI-H460): −49.11%
Percent Growth (NCI-H522): −78.21%
Percent Growth (SF-268): 61.55%
Percent Growth (SF-295): 3.17%
Percent Growth (SNB-19): 27.06%
Percent Growth (SNB-75): −2.087%
Percent Growth (U251): −64.65%
Percent Growth (IGROV1): −4.832%
Percent Growth (NCI/ADR-RES): 23.97%
Percent Growth (OVCAR-3): −35.66%
Percent Growth (OVCAR-4): −28.5%
Percent Growth (OVCAR-5): 60.77%
Percent Growth (OVCAR-8): −14.54%
Percent Growth (SK-OV-3): 94.37%
Percent Growth (A498): 84.01%
Percent Growth (ACHN): −46.91%
Percent Growth (CAKI-1): 70.66%
Percent Growth (RXF 393): −26.13%
Percent Growth (SN12C): 22.8%
Percent Growth (TK-10): 8.048%
Percent Growth (UO-31): 37.26%

N=C(N)NCCCCC(=O)Nc1cc(C(F)(F)F)cc(NC(=O)Nc2ccc(NC(=O)Nc3cc(C(F)(F)F)cc(NC(=O)CCCCNC(=N)N)c3OC3CCNC3)cc2)c1OC1CCNC1 (stereo not drawn) [Compound B]
Percent Growth (A549/ATCC): 49.78%
Percent Growth (EKVX): 61.92%
Percent Growth (HOP-92): 81.51%
Percent Growth (NCI-H23): 77.57%
Percent Growth (NCI-H322M): 80.76%
Percent Growth (NCI-H460): 50.72%
Percent Growth (NCI-H522): −11.87%
Percent Growth (SF-268): 49.93%
Percent Growth (SF-295): 38.86%
Percent Growth (SF-539): 30.8%
Percent Growth (SNB-19): 49.16%
Percent Growth (SNB-75): 19.48%
Percent Growth (U251): 37.71%
Percent Growth (IGROV1): 82.4%
Percent Growth (NCI/ADR-RES): 87.71%
Percent Growth (OVCAR-3): 45.06%
Percent Growth (OVCAR-4): 23.18%
Percent Growth (OVCAR-5): 77.33%
Percent Growth (OVCAR-8): 66.59%
Percent Growth (SK-OV-3): 59.3%
Percent Growth (A498): 66.45%
Percent Growth (ACHN): 62.45%
Percent Growth (CAKI-1): 56.42%
Percent Growth (RXF 393): 87.84%
Percent Growth (SN12C): 64.8%
Percent Growth (TK-10): 60.45%
Percent Growth (UO-31): 45.67%

N=C(N)NCCCCC(=O)Nc1cc(C(F)(F)F)cc(NC(=O)c2cc(C(=O)Nc3cc(C(F)(F)F)cc(NC(=O)CCCCNC(=N)N)c3SCCN)ncn2)c1SCCN [Compound C]
Percent Growth (A549/ATCC): 37.26%
Percent Growth (EKVX): 59.82%
Percent Growth (HOP-92): 93.99%
Percent Growth (NCI-H23): 80.24%
Percent Growth (NCI-H322M): 83.13%
Percent Growth (NCI-H460): 28.72%
Percent Growth (NCI-H522): −26.87%
Percent Growth (SF-268): 53.24%
Percent Growth (SF-295): 39.81%
Percent Growth (SF-539): 70.3%
Percent Growth (SNB-19): 47.25%
Percent Growth (SNB-75): 22.47%
Percent Growth (U251): 31.28%
Percent Growth (IGROV1): 51.71%
Percent Growth (NCI/ADR-RES): 55.27%
Percent Growth (OVCAR-3): 37.56%
Percent Growth (OVCAR-4): 38.79%
Percent Growth (OVCAR-5): 75.78%
Percent Growth (OVCAR-8): 39.11%
Percent Growth (SK-OV-3): 82.66%
Percent Growth (A498): 69.5%
Percent Growth (ACHN): 53.08%
Percent Growth (CAKI-1): 47.81%
Percent Growth (RXF 393): 78.06%
Percent Growth (SN12C): 65.97%
Percent Growth (TK-10): 38.3%
Percent Growth (UO-31): 73.64%

NCCCc1cccc(-c2ccc3sc4ccc(-c5cccc(CCCN)c5)cc4c3c2)c1 [Compound D]
Percent Growth (A549/ATCC): 72.71%
Percent Growth (EKVX): 98.18%
Percent Growth (HOP-92): 78.26%
Percent Growth (NCI-H23): 100.6%
Percent Growth (NCI-H322M): 107%
Percent Growth (NCI-H460): 69.57%
Percent Growth (NCI-H522): 10.75%
Percent Growth (SF-268): 73.4%
Percent Growth (SF-295): 87.17%
Percent Growth (SF-539): 98.34%
Percent Growth (SNB-19): 79.89%
Percent Growth (SNB-75): 71.15%
Percent Growth (U251): 59.7%
Percent Growth (IGROV1): 80.28%
Percent Growth (NCI/ADR-RES): 95.39%
Percent Growth (OVCAR-3): 62.71%
Percent Growth (OVCAR-4): 59.85%
Percent Growth (OVCAR-5): 96.93%
Percent Growth (OVCAR-8): 83.89%
Percent Growth (SK-OV-3): 103.1%
Percent Growth (A498): 81.64%
Percent Growth (ACHN): 68.97%
Percent Growth (CAKI-1): 82.82%
Percent Growth (RXF 393): 81.71%
Percent Growth (SN12C): 84.45%
Percent Growth (TK-10): 86.48%
Percent Growth (UO-31): 85.61%

NCCCc1cccc(-c2ccc3oc4ccc(-c5cccc(CCCN)c5)cc4c3c2)c1 [Compound G]
Percent Growth (EKVX): 81.69%
Percent Growth (HOP-92): 61.6%
Percent Growth (NCI-H23): 99.38%
Percent Growth (NCI-H322M): 108.3%
Percent Growth (NCI-H460): 23.91%
Percent Growth (NCI-H522): 69.45%
Percent Growth (SF-268): 75.18%
Percent Growth (SF-295): 65.4%
Percent Growth (SF-539): 86.73%
Percent Growth (SNB-19): 88.57%
Percent Growth (SNB-75): 66.47%
Percent Growth (IGROV1): 42.2%
Percent Growth (NCI/ADR-RES): 83.66%
Percent Growth (OVCAR-3): 18.54%
Percent Growth (OVCAR-4): 54.91%
Percent Growth (OVCAR-5): 64.48%
Percent Growth (OVCAR-8): 33.74%
Percent Growth (SK-OV-3): 94.45%
Percent Growth (A498): 92.26%
Percent Growth (ACHN): 36.71%
Percent Growth (CAKI-1): 56.68%
Percent Growth (RXF 393): 65.05%
Percent Growth (SN12C): 82.22%
Percent Growth (TK-10): 57.59%
Percent Growth (UO-31): 84.95%

Reference: patent US20120115877A1, “Facially Amphiphilic Compounds, Compositions, And Uses Thereof In Treating Cancer” (POLYMEDIX, INC., priority 2010, published 2012)
